The values below come from patent publication US20020022617A1, “Methods for increasing nitric oxide synthase activity” (American Home Products Corporation, priority 2000, published 2002).

For the test, the system named is aortic rings of ovariectomized rats. Nature of the test: Basal NO release in isolated aortic rings of treated ovariectomized rats (phenylephrine curves before and after L-NAME). The test is classed as in vivo, Sprage-Dawley rats. The conditions noted are these: for response of vessels to L-NAME after washout: 1 mg/kg/day by gastric gavage, 200 μM L-NAME, vehicle treated group had a significantly smaller response; for response of the vessels compared among intact, estradiol and TSE-424 treated groups / difference from vehicle treated group (basal NO release, separation of curves before and after L-NAME): 1 mg/kg/day; for response of the vessels compared among intact, estradiol and TSE-424 treated groups: all phenylephrine concentrations (except 0.01 μM phenylephrine TSE-424 treated group); for difference from vehicle treated group (basal NO release, separation of curves before and after L-NAME): at the 10 and 100 μM phenylephrine concentrations, p<0.05. Here is the method:
Sprage-Dawley rats (240-260 grams) were divided into 4 groups: (1) Normal non-ovariectomized (intact); (2) Ovariectomized (ovex) vehicle treated; (3) Ovariectomized 17-β estradiol treated (1 mg/kg/day); and (4) Ovariectomized TSE-424 treated (1 mg/kg/day). All animals were ovariectomized approximately 3 weeks prior to treatment. Each received 1 mg/kg/day of either 17-β estradiol sulfate or TSE-424 suspended in distilled, deionized water with 1% tween-80 by gastric gavage. Vehicle treated animals received an appropriate volume of the vehicle used in the drug treated groups.
Animals were euthanized by CO2 inhalation and exsanguination. Their thoracic aortas were rapidly removed and placed in 37° C. physiological solution with the following composition (mM): NaCl (54.7), KCl (5.0), NaHCO3 (25.0), MgCl2.2H2O (2.5), D-glucose (11.8) and CaCl2 (0.2) gassed with […] for a final pH of 7.4. The advantitia was removed from the outer surface and the vessel was cut into 2-3 mm wide rings. Rings were suspended in at 10 mL tissue bath with one end attached to the bottom of the bath and the other to a force transducer. A resting tension of 1 gram was placed on the rings.
After equilibration, the rings were exposed to increasing concentrations of phenylephrine (10^−8 to 10^−4 M) and the tension recorded. Baths were then rinsed 3 times with fresh buffer. After washout, 200 μM N′-nitro-L-arginine methyl ester hydrochloride (L-NAME) was added to the tissue bath and equilibrated for 30 minutes. The phenylephrine concentration response curve was then repeated.
Contraction amplitudes at each concentration of phenylephrine were normalized to the maximum phenylephrine-induced contraction before the addition of L-NAME and graphed. The amount of basal NO released was proportional to the degree of separation between the 2 curves before and after L-NAME. Statistical differences were at the p<0.05 level of significance using a repeated measures “Test of Effect Slices (SAS)” analysis of variance.

Consider `Cc1c(-c2ccc(O)cc2)n(Cc2ccc(OCCN3CCCCCC3)cc2)c2ccc(O)cc12` [TSE-424, 1-[4-(2-Azepan-1yl-ethoxy)-benzyl]-2-(4-hydroxy-phenyl)-3-methyl-1H-indol-5-ol], for which the “response of vessels to L-NAME after washout” value is “substantial contraction”; the “response of the vessels compared among intact, estradiol and TSE-424 treated groups” value is “indistinguishable”; the “difference from vehicle treated group (basal NO release, separation of curves before and after L-NAME)” value is “significantly different”.
In the case of `C[C@]12CC[C@@H]3c4ccc(O)cc4CC[C@H]3[C@@H]1CC[C@@H]2O` [estradiol, 17-β estradiol], the “response of vessels to L-NAME after washout” value is “substantial contraction”; the “response of the vessels compared among intact, estradiol and TSE-424 treated groups” value was “indistinguishable”; the “difference from vehicle treated group (basal NO release, separation of curves before and after L-NAME)” value is “significantly different”.
